Reference: US20250296961A1, “ANTIMICROBIAL PEPTIDES FOR REMINERALIZATION OF TEETH AND PREVENTION OF DENTAL CARIES” (The University of Hong Kong, priority 2021, published 2025)
Like-named read-outs stand apart in the source and are kept apart here. Residues, ends and D or L forms follow the SMILES beside them. No end group written: not given here.

How the values were obtained:
[1] = for Peptide concentration incubated in human saliva: 37° C.; for Stability: summary grade
Description: (§1) The collected saliva samples were centrifuged at 12,000 rpm for 20 min^21]. The supernatant was filtered to remove any debris. […] At 0, 0.5, 1, 2, 4, and 6 h, 40 uL solutions were taken from each sample and were analysed by High Performance Liquid Chromatography (HPLC-UV, 1525 Binary HPLC Pump, 2489 UV/Visible Detector, Waters, USA).

[2] = test system: MC3T3-E1 cells
Description: (§2) Cells exposed to α-MEM without peptide was the control group. Cells viability after peptide exposure was evaluated by cell survival rate using Cell Counting Kit-8 assay (CCK-8 assay, Sigma-Aldrich, St. Louis, USA).

[3] = in vitro; conditions: human, human saliva (centrifuged, filtered supernatant)
Description: as §1

[4] = in vitro; conditions: mouse, MC3T3-E1 cells
Description: as §2

[5] = Stability of 8DSS-C8-P-113 hydrogel on tooth surface in flow water (BCA); assay type: physicochemical; conditions: 16 μM mL^−1, flow water 30 mL h-1, 2 h
Description: 20 μL of 16 μM mL^−1 solution of 8DSS-C8-P-113 was applied to the tooth surface (N=5), and self-formed a layer of hydrogel sticking to the bottom of a hand-made instrument (FIG. 2J). To simulate the average human salivary flow rate, a stable flow of deionized water at a rate of 30 mL h-1 was provided using a Syringe Pump (LSP02-1B Double Channel inject/extract, China). The drained liquid, approximately 15 mL, was collected every 30 min. A sample of 100 μL of 16 μM mL^−1 solution of 8DSS-C8-P-113 was added to 15 mL of deionized water to serve as the 0 min sample. After 2 h, the drained liquids collected at 30 min, 60 min, 90 min, and 120 min were tested for their concentrations using Pierce BCA Protein Assay Kit (Rockford, IL).

[6] = test system: S. mutans; set-up: species or system Sprague-Dawley rats; conditions: rat, in vivo
Description: The rat caries model was conducted under the protocol approved by the Ethics Committee of Anhui Medical University, China (ref. no. LLSC20232002) in accordance with national and international guidelines to minimise animal suffering. Ten male specific pathogen-free Sprague-Dawley rats aged 6 weeks were selected. The rats were provided with appropriate antibiotics (ampicillin, chloramphenicol, and carbencillin 1.0 g/kg/day) in the drinking water for 3 days. […] The infection was confirmed by oral swabbing and culturing on mitis salivarius-bacitracin (MSB) agar plates. The infected animals were randomly assigned into two groups (N=10): 16 μM mL^−1 of 8DSS-C8-P-113 in 10 mM HEPES (pH=7, n=5) and 10 mM HEPES (n=5, control group). Animals in each group were treated with 150 μL of the respective treatment topically using dental bonding brush for 2 min once daily for 4 weeks. […] The severity of caries was evaluated by the Keyes' scoring system which categorizes caries as enamel only (E), dentin exposed ¼ to ¾ (Ds), or more than ¾ dentin affected (Dm). The rats' weights were recorded to monitor for signs of toxicity. Additionally, various tissues from gingiva, palate, heart, liver, spleen, lung, and kidney were collected, stained with hematoxylin and eosin (H&E), and histopathologically analysed.

| Compound | Peptide concentration incubated in human saliva ([1]; 0 h) [mg/mL] | Peptide concentration incubated in human saliva ([1]; 0.5 h) [mg/mL] | Peptide concentration incubated in human saliva ([1]; 1 h) [mg/mL] | Peptide concentration incubated in human saliva ([1]; 2 h) [mg/mL] | Peptide concentration incubated in human saliva ([1]; 4 h) [mg/mL] | Peptide concentration incubated in human saliva ([1]; 6 h) [mg/mL] | Stability [1] | Cytocompatibility [2] | remaining at 6 h, 1 mg mL^−1 [3] [%] | viability at 24 h, 2 ×MBC [4] [%] | Hydrogel remaining on the tooth surface (of initial status) [5] | Hydrogel remaining on the tooth surface (of initial status) ([5]; listed as 8DSS-C8-P-113 hydrogel) | Histopathology analysis (H&E) [6] |
| --- | --- | --- | --- | --- | --- | --- | --- | --- | --- | --- | --- | --- | --- |
| CC(C)C[C@H](NC(=O)[C@H](CCCNC(=N)N)NC(=O)[C@H](Cc1ccccc1)NC(=O)[C@H](Cc1ccccc1)NC(=O)[C@@H](NC(=O)[C@H](COP(=O)(O)O)NC(=O)[C@@H](N)COP(=O)(O)O)[C@@H](C)O)C(=O)N[C@@H](Cc1ccccc1)C(=O)N[C@@H](CC(N)=O)C(=O)N[C@@H](CCCNC(=N)N)C(=O)N[C@@H](C)C(=O)N[C@@H](CCCCN)C(=O)N[C@@H](CCCNC(=N)N)C(=O)N[C@@H](Cc1c[nH]cn1)C(=O)N[C@@H](Cc1c[nH]cn1)C(=O)NCC(=O)N[C@@H](Cc1ccc(O)cc1)C(=O)N[C@@H](CCCCN)C(=O)N[C@@H](CCCNC(=N)N)C(=O)N[C@@H](CCCCN)C(=O)N[C@@H](Cc1ccccc1)C(=O)N[C@@H](Cc1c[nH]cn1)C(=O)O [DPS-C8-P-113] (HELM PEPTIDE1{[N[C@@H](COP(=O)(O)O)C(=O)[*:2]].[O=C([C@H](COP(=O)(O)O)N[*:1])[*:2]].T.F.F.R.L.F.N.R.A.K.R.H.H.G.Y.K.R.K.F.H}$$$$V2.0) | 1 | 0.9818 | 0.9785 | 0.9504 | 0.5388 | 0.562 | ++ | + | 56.2 | 48 | – | – | – |
| DSSDSSDSSDSSDSSDSSDSSDSSTFFRLFNRAKRHHGYKRKFH [8DSS-C8-P-113] | 1 | 0.9942 | 0.987 | 0.9885 | 0.8991 | 0.894 | +++ | ++ | 89.4 | – | over 80% | approximately 82.15% | No signs of inflammatory reaction, proliferative changes, or necrosis |
